Results on two compounds are retold here after article PMC10210183 (ACS Omega, 2023).

For the test, the target named is eqBChE (Equus caballus, UniProt P81908). Briefly: biochemical. As to conditions: read-out: BChE % Inhibition ± SD @ 1 μM, eqBChE, 1 μM.
Sequence of eqBChE (P81908 whole entry): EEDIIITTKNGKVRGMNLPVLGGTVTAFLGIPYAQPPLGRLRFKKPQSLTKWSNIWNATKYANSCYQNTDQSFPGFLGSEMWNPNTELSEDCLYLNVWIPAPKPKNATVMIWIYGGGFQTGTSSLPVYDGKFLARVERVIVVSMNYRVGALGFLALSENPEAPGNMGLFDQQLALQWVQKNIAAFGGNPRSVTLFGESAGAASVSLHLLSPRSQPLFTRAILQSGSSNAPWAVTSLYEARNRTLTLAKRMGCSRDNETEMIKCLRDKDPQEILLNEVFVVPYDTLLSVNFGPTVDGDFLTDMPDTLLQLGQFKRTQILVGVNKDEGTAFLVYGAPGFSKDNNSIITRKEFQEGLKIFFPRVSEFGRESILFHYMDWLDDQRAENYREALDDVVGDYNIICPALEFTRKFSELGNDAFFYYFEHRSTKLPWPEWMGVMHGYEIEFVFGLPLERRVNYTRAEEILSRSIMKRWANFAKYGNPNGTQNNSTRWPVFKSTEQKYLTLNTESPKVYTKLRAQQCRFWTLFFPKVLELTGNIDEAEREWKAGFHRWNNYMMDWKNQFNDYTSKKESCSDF

What is called inhibition is the percentage by which the read-out fell short of the control. Regarding `COc1cc(/C=C/c2cc[n+](Cc3ccccc3)cc2)cc(OC)c1` [Compound 7a, (E)-1-Benzyl-4-(3,5-dimethoxystyryl)pyridin-1-ium bromide], the inhibition at 1 µM amounted to 20%.

As to `COc1ccc2cc(/C=C/c3cc[n+](Cc4ccccc4)cc3)ccc2c1` [Compound 7aq, (E)-1-Benzyl-4-(2-(6-methoxynaphthalen-2-yl)vinyl)pyridin-1-ium bromide], the inhibition at 1 µM was 60%.
